Tests used:
Assay type in all cases: cell-based, human
γ-secretase [1] = assay: Transiently transfected HEK293 cells, Aβ in the cell medium by ELISA (4G8/6E10); settings: HEK293 transiently co-transfected; Aβ in cell medium quantified by ELISA
From the text: For expression in mammalian cells, the signal peptide in SP2-C-GAL4/VP16-100 was replaced, as described in Example 8, with a mammalian signal peptide derived from the basal membrane protein BM40, which is known for high level expression (SP3; SEQ ID NO. 13). Processing of γ-secretase was monitored by quantifying the secretion of Aβ into the culture medium. The secreted Aβ was detected by a sandwich ELISA using monoclonal antibodies 6E10 and biotinylated 4G8 (Senetek PLC, Napa, Calif., USA; cf. Kim et al., 1990) as capture and detection antibodies, respectively.
(§1) HEK293 cells were co-transfected with the SP3-C55-GAL4/VP16 vector (0.03 μg) and the pGL2-MRG5 luciferase reporter vector (1 μg) in Multi-Well 12 plates.
(§2) Luciferase activity was quantified by the Bright-Glo Luciferase Assay kit (Promega). Aβ in the cell medium was quantified by ELISA, using the antibodies 4G8 and 6E10 (from Senetek), as described in Example 11. These antibodies are specific for amino acids 17-24 (4G8) and 1-17 (6E10) of the Aβ-peptide.

γ-secretase [2] = assay: Transiently transfected HEK293 cells (SP3-C55-GAL4/VP16 + pGL2-MRG5 luciferase reporter), luciferase activity; settings: HEK293 transiently co-transfected with SP3-C55-GAL4/VP16 vector and pGL2-MRG5 luciferase reporter vector; read-out: IC50, inhibition of luciferase activity and Aβ-production
Description: as §1, §2

γ-secretase [3] = assay: Stably transfected HEK293 cell clone (SP3-C55-GAL4/VP16 + MRG5-luciferase), luciferase activity; settings: stably double-transfected HEK293 clone, 24 h treatment; read-out: IC50, inhibition of luciferase activity
Description: HEK293 cells (Human Embryonic Kidney cell line, (ATCC)) were co-transfected with the plasmid SP3-C55-GAL4/VP16 and the luciferase reporter plasmid PGL2-MRG5(described in Example 2).
Subsequently, stable cell lines were selected by incubation with 400 μg/ml Geneticin (GibcoBRL) to select for Neomycin resistant clones and thereafter characterized for stable expression of SP3-C55-GAL4/VP16 and luciferase.
A clone of HEK293 cells that stably express both the SP3-C55-GAL4/VP16 and the MRG5-luciferase constructs was identified according to Example 14.
For the identification of γ-secretase inhibitors, stably double-transfected HEK293 cells (see Example 14) are incubated, in Multi-Well 96 plates, in the presence of the compound(s) under investigation (e.g., compound library screening) at a concentration 10 μM or less in the assay, and luciferase activity is determined 24 hours later. Luciferase activity can be quantified with the Luciferase Assay System kit (Promega), the Bright-Glo Luciferase Assay kit (Promega), or any other method for luciferase quantification. A decrease in luciferase activity reflects a decrease in γ-secretase activity.

IC50 (γ-secretase [2]) [µM] | IC50 (γ-secretase [3]) [µM] | Structure (SMILES) | Aβ-production (γ-secretase [1])
0.014 | 0.23 | C[C@H](NC(=O)Cc1cc(F)cc(F)c1)C(=O)N[C@H](C(=O)OC(C)(C)C)c1ccccc1 [DAPT] | inhibited dose-dependently
0.019 | 0.13 | CC(C)C[C@H](NC(=O)[C@H](Cc1ccccc1)C[C@@H](O)[C@H](Cc1ccccc1)NC(=O)OC(C)(C)C)C(=O)N[C@@H](Cc1ccccc1)C(N)=O [L-685,458] | inhibited dose-dependently

From patent publication US7892778B2, “Method of screening for gamma-secretase activity” (Sanofi-Aventis Deutschland GmbH, priority 2003, dated 2011)
